These results are taken from patent publication US9474790B2, “Stable, protracted GLP-1/glucagon receptor co-agonists for medical use” (Novo Nordisk A/S, priority 2013, dated 2016).

The IC50 is the concentration that inhibits the measured activity by half.

Numbered stars: 1 amine (or outer) side, 2 acyl side, 3 side chain; on linkers, the order of the positions; unused ones are H or OH. Square brackets hold non-standard residues; d marks the D form. Side chains are listed from the residue outwards. Peptide text beside a SMILES is read from it. * marks the point of attachment. C18 diacid = O=C(O)CCCCCCCCCCCCCCCCC(=O)*; γGlu = O=C(O)[C@H](CCC(=O)[*:2])N[*:1]; Ac4c = NC1(C(=O)O)CCC1; AEEA = NCCOCCOCC(=O)O; Aib = CC(C)(N)C(=O)O

This assay deals with T1, human glucagon receptor (Homo sapiens, UniProt P47871).
T1 construct: expressed in transfected cells; host or cells: BHK cells (parent BHK570, CRE luciferase clone BHK/KZ10-20-48), clone pLJ6'-4-25
T1 sequence (P47871 26-477): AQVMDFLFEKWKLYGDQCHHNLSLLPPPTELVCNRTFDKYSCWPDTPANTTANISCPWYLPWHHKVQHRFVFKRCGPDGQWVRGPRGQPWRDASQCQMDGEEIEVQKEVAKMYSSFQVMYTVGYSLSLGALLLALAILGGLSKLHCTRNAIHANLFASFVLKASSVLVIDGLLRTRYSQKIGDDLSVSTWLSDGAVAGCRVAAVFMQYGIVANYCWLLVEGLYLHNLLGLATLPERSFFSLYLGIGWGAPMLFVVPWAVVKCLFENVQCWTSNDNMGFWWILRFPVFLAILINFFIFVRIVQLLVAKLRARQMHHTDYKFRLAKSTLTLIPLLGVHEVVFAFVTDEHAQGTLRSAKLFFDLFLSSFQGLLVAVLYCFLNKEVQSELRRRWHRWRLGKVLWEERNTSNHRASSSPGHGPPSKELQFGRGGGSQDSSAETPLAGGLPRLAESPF
Kind of assay: Glucagon receptor binding, 125I-glucagon displacement SPA on isolated membranes. Particulars: displacement of 125I-glucagon from membranes; read-out: IC50 GlucR. The essentials:
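Membranes from BHK cells stably expressing human glucagon receptor incubated 2 h at 25 °C with [125I]-glucagon (25 μl of 480 pM solution) and serial compound dilutions in WGA SPA format, pH 7.4 buffer with 0.1% ovalbumin. Albumin at max 0.001% or 0.2% final. IC50 from non-linear regression.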
On the technique in general: Loss of bound radioactivity is the signal in a displacement assay; it reports binding, not function.
Turning to `CC(C)C[C@H](NC(=O)[C@H](Cc1ccc(O)cc1)NC(=O)[C@H](CCCCN)NC(=O)[C@H](CO)NC(=O)[C@H](CC(C)C)NC(=O)[C@H](CC(=O)O)NC(=O)[C@H](CO)NC(=O)[C@@H](NC(=O)[C@H](Cc1ccccc1)NC(=O)[C@@H](NC(=O)CNC(=O)[C@H](CCC(N)=O)NC(=O)C(C)(C)NC(=O)[C@@H](N)Cc1c[nH]cn1)[C@@H](C)O)[C@@H](C)O)C(=O)N[C@@H](CCC(=O)O)C(=O)N[C@@H](CO)C(=O)N[C@@H](CCCNC(=N)N)C(=O)N[C@@H](CCCNC(=N)N)C(=O)N[C@@H](C)C(=O)N[C@@H](CCCNC(=N)N)C(=O)N[C@@H](CCC(=O)O)C(=O)N[C@@H](Cc1ccccc1)C(=O)N[C@H](C(=O)N[C@@H](CCC(N)=O)C(=O)N[C@@H](Cc1c[nH]c2ccccc12)C(=O)N[C@@H](CC(C)C)C(=O)N[C@@H](CC(C)C)C(=O)N[C@@H](CCCCNC(=O)CC[C@H](NC(=O)CC[C@H](NC(=O)COCCOCCNC(=O)COCCOCCNC(=O)CC[C@H](NC(=O)CCCCCCCCCCCCCCCCC(=O)O)C(=O)O)C(=O)O)C(=O)O)C(=O)N[C@H](C(N)=O)[C@@H](C)O)C(C)C` [Example 23, N^ε28-[(4S)-4-carboxy-4-[[(4S)-4-carboxy-4-[[2-[2-[2-[[2-[2-[2-[[(4S)-4-carboxy-4-(17-carboxyheptadecanoylamino)butanoyl]amino]ethoxy]ethoxy]acetyl]amino]ethoxy]ethoxy]acetyl]amino]butanoyl]amino]butanoyl]-[Aib2,Leu10,Glu15,Arg20,Glu21,Leu27,Lys28]-Glucagon amide] (H-H[Aib]QGTFTSDLSKYLESRRAREFVQWLLK([γGlu-γGlu-AEEA-AEEA-γGlu-C18 diacid])T-NH2; N-terminus assumed), the IC50 was found to be 6.4 nM.

Turning to `CC(C)C[C@H](NC(=O)[C@H](CC(=O)O)NC(=O)[C@H](CC(C)C)NC(=O)[C@H](Cc1ccc(O)cc1)NC(=O)[C@H](CCCNC(=N)N)NC(=O)[C@H](CO)NC(=O)[C@H](CC(C)C)NC(=O)[C@H](CC(=O)O)NC(=O)[C@H](CO)NC(=O)[C@@H](NC(=O)[C@H](Cc1ccccc1)NC(=O)[C@@H](NC(=O)CNC(=O)[C@H](CCC(N)=O)NC(=O)C1(NC(=O)[C@@H](N)Cc2c[nH]cn2)CCC1)[C@@H](C)O)[C@@H](C)O)C(=O)N[C@@H](CCCNC(=N)N)C(=O)N[C@@H](CCCNC(=N)N)C(=O)N[C@@H](C)C(=O)N[C@@H](CCCNC(=N)N)C(=O)N[C@@H](CC(=O)O)C(=O)N[C@@H](Cc1ccccc1)C(=O)N[C@H](C(=O)N[C@@H](CCC(N)=O)C(=O)N[C@@H](Cc1c[nH]c2ccccc12)C(=O)N[C@@H](CC(C)C)C(=O)N[C@@H](CC(C)C)C(=O)N[C@@H](CCCCNC(=O)CC[C@H](NC(=O)CC[C@H](NC(=O)COCCOCCNC(=O)COCCOCCNC(=O)CC[C@H](NC(=O)CC[C@H](NC(=O)CCCCCCCCCCCCCCCCC(=O)O)C(=O)O)C(=O)O)C(=O)O)C(=O)O)C(=O)N[C@H](C(N)=O)[C@@H](C)O)C(C)C` [Example 46, N^ε28-[(4S)-4-carboxy-4-[[(4S)-4-carboxy-4-[[2-[2-[2-[[2-[2-[2-[[(4S)-4-carboxy-4-[[(4S)-4-carboxy-4-(17-carboxyheptadecanoylamino)butanoyl]amino]butanoyl]amino]ethoxy]ethoxy]acetyl]amino]ethoxy]ethoxy]acetyl]amino]butanoyl]amino]butanoyl]-[Acb2,Leu10,Arg12,Leu16,Arg20,Leu27,Lys28]-Glucagon amide] (H-H[Ac4c]QGTFTSDLSRYLDLRRARDFVQWLLK([γGlu-γGlu-AEEA-AEEA-γGlu-γGlu-C18 diacid])T-NH2; N-terminus assumed), the IC50 came out at 8.5 nM.

Regarding `CC(C)C[C@H](NC(=O)[C@H](Cc1ccc(O)cc1)NC(=O)[C@H](CCCCN)NC(=O)[C@H](CO)NC(=O)[C@H](CC(C)C)NC(=O)[C@H](CC(=O)O)NC(=O)[C@H](CO)NC(=O)[C@@H](NC(=O)[C@H](Cc1ccccc1)NC(=O)[C@@H](NC(=O)CNC(=O)[C@H](CCC(N)=O)NC(=O)C(C)(C)NC(=O)[C@@H](N)Cc1c[nH]cn1)[C@@H](C)O)[C@@H](C)O)C(=O)N[C@@H](CC(=O)O)C(=O)N[C@@H](C)C(=O)N[C@@H](CCCNC(=N)N)C(=O)N[C@@H](CCCNC(=N)N)C(=O)N[C@@H](C)C(=O)N[C@@H](CCCNC(=N)N)C(=O)N[C@@H](CCC(=O)O)C(=O)N[C@@H](Cc1ccccc1)C(=O)N[C@H](C(=O)N[C@@H](CCC(N)=O)C(=O)N[C@@H](Cc1c[nH]c2ccccc12)C(=O)N[C@@H](CC(C)C)C(=O)N[C@@H](CC(C)C)C(=O)N[C@@H](CC(N)=O)C(=O)N[C@@H](CCCCNC(=O)CC[C@H](NC(=O)CC[C@H](NC(=O)COCCOCCNC(=O)CC[C@H](NC(=O)CCCCCCCCCCCCCCCCC(=O)O)C(=O)O)C(=O)O)C(=O)O)C(N)=O)C(C)C` [Example 39, N^ε29-[(4S)-4-carboxy-4-[[(4S)-4-carboxy-4-[[2-[2-[2-[[(4S)-4-carboxy-4-(17-carboxyheptadecanoylamino)butanoyl]amino]ethoxy]ethoxy]acetyl]amino]butanoyl]amino]butanoyl]-[Aib2,Leu10,Ala16,Arg20,Glu21,Leu27,Lys29]-Glucagon amide] (H-H[Aib]QGTFTSDLSKYLDARRAREFVQWLLNK([γGlu-γGlu-AEEA-γGlu-C18 diacid])-NH2; N-terminus assumed), the IC50 was 5.6 nM.

As to `CC(C)C[C@H](NC(=O)[C@H](Cc1ccc(O)cc1)NC(=O)[C@H](CCCCN)NC(=O)[C@H](CO)NC(=O)[C@H](CC(C)C)NC(=O)[C@H](CC(=O)O)NC(=O)[C@H](CO)NC(=O)[C@@H](NC(=O)[C@H](Cc1ccccc1)NC(=O)[C@@H](NC(=O)CNC(=O)[C@H](Cc1c[nH]cn1)NC(=O)C(C)(C)NC(=O)[C@@H](N)Cc1c[nH]cn1)[C@@H](C)O)[C@@H](C)O)C(=O)N[C@@H](CCC(=O)O)C(=O)N[C@@H](CO)C(=O)N[C@@H](CCCNC(=N)N)C(=O)N[C@@H](CCCNC(=N)N)C(=O)N[C@@H](C)C(=O)N[C@@H](CCCNC(=N)N)C(=O)N[C@@H](CCC(=O)O)C(=O)N[C@@H](Cc1ccccc1)C(=O)N[C@H](C(=O)N[C@@H](CCC(N)=O)C(=O)N[C@@H](Cc1c[nH]c2ccccc12)C(=O)N[C@@H](CC(C)C)C(=O)N[C@@H](CC(C)C)C(=O)N[C@@H](CCCCNC(=O)CC[C@H](NC(=O)CC[C@H](NC(=O)COCCOCCNC(=O)COCCOCCNC(=O)CC[C@H](NC(=O)CCCCCCCCCCCCCCCCC(=O)O)C(=O)O)C(=O)O)C(=O)O)C(=O)N[C@H](C(N)=O)[C@@H](C)O)C(C)C` [Example 33, N^ε28-[(4S)-4-carboxy-4-[[(4S)-4-carboxy-4-[[2-[2-[2-[[2-[2-[2-[[(4S)-4-carboxy-4-(17-carboxyheptadecanoylamino)butanoyl]amino]ethoxy]ethoxy]acetyl]amino]ethoxy]ethoxy]acetyl]amino]butanoyl]amino]butanoyl]-[Aib2,His3,Leu10,Glu15,Arg20,Glu21,Leu27,Lys28]-Glucagon amide] (H-H[Aib]HGTFTSDLSKYLESRRAREFVQWLLK([γGlu-γGlu-AEEA-AEEA-γGlu-C18 diacid])T-NH2; N-terminus assumed), the IC50 was 2 nM.

Turning to `CC(C)C[C@H](NC(=O)[C@H](Cc1ccc(O)cc1)NC(=O)[C@H](CCCCN)NC(=O)[C@H](CO)NC(=O)[C@H](CC(C)C)NC(=O)[C@H](CC(=O)O)NC(=O)[C@H](CO)NC(=O)[C@@H](NC(=O)[C@H](Cc1ccccc1)NC(=O)[C@@H](NC(=O)CNC(=O)[C@H](CCC(N)=O)NC(=O)C1(NC(=O)[C@@H](N)Cc2c[nH]cn2)CCC1)[C@@H](C)O)[C@@H](C)O)C(=O)N[C@@H](CCC(=O)O)C(=O)N[C@@H](CO)C(=O)N[C@@H](CCCCN)C(=O)N[C@@H](CCCNC(=N)N)C(=O)N[C@@H](C)C(=O)N[C@@H](CCCNC(=N)N)C(=O)N[C@@H](CCC(=O)O)C(=O)N[C@@H](Cc1ccccc1)C(=O)N[C@H](C(=O)N[C@@H](CCC(N)=O)C(=O)N[C@@H](Cc1c[nH]c2ccccc12)C(=O)N[C@@H](CC(C)C)C(=O)N[C@@H](CC(C)C)C(=O)N[C@@H](CCCCNC(=O)CC[C@H](NC(=O)CC[C@H](NC(=O)[C@H](CO)NC(=O)[C@H](CCC(=O)O)NC(=O)[C@H](CO)NC(=O)CC[C@H](NC(=O)CC[C@H](NC(=O)CCCCCCCCCCCCCCCCC(=O)O)C(=O)O)C(=O)O)C(=O)O)C(=O)O)C(=O)N[C@H](C(N)=O)[C@@H](C)O)C(C)C` [Example 68, N^ε28-[(4S)-4-carboxy-4-[[(4S)-4-carboxy-4-[[(2S)-2-[[(2S)-4-carboxy-2-[[(2S)-2-[[(4S)-4-carboxy-4-[[(4S)-4-carboxy-4-(17-carboxyheptadecanoylamino)butanoyl]amino]butanoyl]amino]-3-hydroxypropanoyl]amino]butanoyl]amino]-3-hydroxypropanoyl]amino]butanoyl]amino]butanoyl]-[Acb2,Leu10,Glu15,Lys17,Arg20,Glu21,Leu27,Lys28]-Glucagon amide] (H-H[Ac4c]QGTFTSDLSKYLESKRAREFVQWLLK([γGlu-γGlu-Ser-Glu-Ser-γGlu-γGlu-C18 diacid])T-NH2; N-terminus assumed), the IC50 stood at 0.6 nM.
